Values of other authors as cited in PMC6331757, “Optimization of a peptide extraction and LC–MS protocol for quantitative analysis of antimicrobial peptides” (Future Science OA, 2018).

Tested on: Gram-negative (e.g., Pseudomonas aeruginosa and Escherichia coli) and Gram-positive (e.g., Staphylococcus aureus) bacteria
Settings: qualitative statement

Question: Which “antibacterial activity (kills bacteria, disperses biofilms, inhibits bacterial swarming)” value does the source give for “VRLIVAVRIWRR [AMP 1018, synthetic antimicrobial peptide 1018 (…); also used as internal standard]” here?
Answer: potent antibacterial
